Results taken from US5302602A, “Tricyclic thromboxane A2 antagonists” (Kyowa Hakko Kogyo Co., Ltd., priority 1987, dated 1994).
Like-named read-outs stand apart in the source and are kept apart here.

Key:
mice = test: Acute toxicity test; assay type: in vivo; conditions: mortality observed for seven days
Protocol: Using three dd strain male mice weighing 20±1 g, a test compound was orally (po; 300 mg/kg) or intraperitoneally (ip; 100 mg/kg) administered. MLD (the minimum lethal dose) was determined by observing the mortality for seven days after administration.

[1] = test system: homologous passive cutaneous anaphylaxis (PCA); test: Antiallergic activity test: homologous passive cutaneous anaphylaxis (PCA) test for 48 hours using rats; assay type: in vivo, rat (Wistar strain, male); conditions: Rattus norvegicus, po, minimum dose with at least one of 3 rats showing PCA inhibition rate 50% or more, read-out: Antiallergic Activity (MED), minimum effective dose
Protocol: Antiallergic activity was examined in accordance with the passive cutaneous anaphylaxis (PCA) test using rats. As test animals, Wistar strain male rats weighing 180 to 220 g were used to collect antiserum and for the PCA test, Wistar strain male rats weighing 120 to 140 g were used.
Anti-EWA rat serum was prepared according to the method of Stotland and Share [Can. J. Physiol. Pharmacol., 52, 1114 (1974)]. That is, 1 mg of EWA was mixed with 20 mg of aluminum hydroxide gel and 0.5 ml of pertussis-diphtberia-tetanus mixed vaccine. The mixture was subcutaneously administered to the rat paw in 4 portions. Fourteen days after, blood was collected from the carotid artery and the serum was isolated and stored in a state frozen at -80° C. Titer of this antiserum to homologous PCA for 48 hours was 1:32.
Three rats were used per group. After the hair at the back was cut, 0.05 ml each of anti-EWA rat serum diluted to 8-fold with physiological saline was intracutaneously injected to each rat at the back in 2 places to passively sensitize the rat. A test compound or its solution (physiological saline solution or CMC solution) was orally administered 47 hours after and 0.5 ml/100 g of 1% Evans Blue physiological saline containing 2 mg of antigen EWA was then intravenously administered to the tail vein an hour after the administration. Thirty minutes later, the animal was bled to death. The skin was peeled off and a leaked dye amount at the blue dyed portion was measured according to the method of Katayama et al. [Microbiol. Immunol., 22, 89 (1978)]. That is, the blue dyed portion was cut off with scissors, put into a test tube charged with 1 ml of 1 N potassium hydroxide and incubated at 37° C. for 24 hours. After 9 ml of a mixture of 0.6 N phosphate:acetone (5:13) was added to the system, the mixture was shaken followed by centrifugation at 2500 rpm for 10 minutes. The absorbancy of the supernatant at 620 nm was measured and the leaked dye amount was quantitatively determined by comparison with a calibration curve previously prepared. A value of one rat was obtained from a mean value of the two portions and an inhibition rate-of each rat was calculated according to the following equation. [formula]
The case showing that the inhibition rate is 50% or more is judged to be positive in the PCA inhibition activity and the minimum dose in which at least one out of 3 rats was recognized to be positive was defined as the minimum effective dose (MED) of the test compound.

[2] = test system: guinea pig platelets (TXA2/prostaglandin H2 receptor); test: Test on anti-platelet activity (TXA2 antagonizing test): inhibition of U-46619-induced platelet aggregation; assay type: cell-based; conditions: Cavia porcellus, 0.05 h; minimum concentration inhibiting U-46619 (0.5-1 μM)-induced platelet aggregation by 30% or more; guinea pig PRP; read-out: TXA2 Antagonizing Activity (MEC), minimum effective concentration
Protocol: Using guinea pig platelets influence of the compounds in accordance with the present invention on platelet aggregation induced by U-46619 (9,11-dideoxy-9α,11a-methanoepoxyprostaglandin F2 α; manufactured by Cayman Chemica Co., Ltd.) which is a TXA2 /prostaglandin H2 receptor stimulant was examined.
Male guinea pig (Hartley strain; body weight, 300 to 600 g) was anesthesized by intraperitoneal administration of sodium pentobarbital (30 mg/kg) and blood was collected from the descending aorta of the abdomen with a 1/10 volume of sodium citrate. By centrifugation (KC-70: manufactured by Kubota Co., Ltd.) at 800 rpm for 10 minutes, platelet rich plasma (PRP) was collected. Platelet aggregation induced by U-46619 (0.5-1 μM) was determined by photometry [Born, G.V.R. et al., Nature (London), 194, 927-929 (1962)]. A test compound was pretreated 3 minutes prior to aggregation induction and ability of inhibiting aggregation was measured. The minimum concentration for inhibiting platelet aggregation by 30% or more was defined as the minimum effective concentration (MEC) of the test compound.

TXA2 receptor = target: T1, TXA2 receptor (Cavia porcellus, UniProt A0A286Y4I8); test: Binding study using 3H-U46619 (TXA2 receptor binding activities test); design: species or system guinea pig; conditions: for inhibition at 1 µM: 20 min, read-out: % Inhibition (3H-U46619 binding); for inhibitory activity (TXA2 receptor binding), in words: statement in words on Table 4
T1 construct: To a washed platelet suspension (1×10^8 platelets) of guinea pig; endogenous in cells; host or cells: washed guinea pig platelets
T1 sequence (A0A286Y4I8 1-347): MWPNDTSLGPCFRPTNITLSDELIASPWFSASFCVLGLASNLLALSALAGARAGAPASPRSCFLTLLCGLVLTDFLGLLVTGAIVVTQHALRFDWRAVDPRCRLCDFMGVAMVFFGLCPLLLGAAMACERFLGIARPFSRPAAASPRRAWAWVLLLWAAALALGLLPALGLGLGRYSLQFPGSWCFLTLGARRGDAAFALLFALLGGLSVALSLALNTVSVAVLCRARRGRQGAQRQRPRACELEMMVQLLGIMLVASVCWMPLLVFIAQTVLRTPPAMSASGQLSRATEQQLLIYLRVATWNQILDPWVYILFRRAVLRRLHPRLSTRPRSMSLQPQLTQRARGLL
Protocol: Receptor binding was determined by a modified method of Kattelman et al. (Thrombosis Research, 41, 471 (1986)].
To a washed platelet suspension (1×10^8 platelets) of guinea pig were added 12 nM of tritium-labeled U46619 (^3 H-U46619; NEN Co., Ltd.) and a test compound (final concentration: 1 μM) solution. After keeping at 37° C. for 20 minutes, the mixture was rapidly filtered through a glass fiber filter paper (GF/C; Whatman). Immediately, the filter paper was washed 5 times with 3 ml of ice-cold 50 mM Tris-hydroxymethylaminomethane buffer (containing 100 mM sodium chloride). The glass fiber filter was transferred to a vial and a scintillator (Ex-H; manufactured by Wako Pure Chemical Industries Co., Ltd.) was added thereto. The radioactivity was determined with a liquid scintillation counter.
It is already known that ^3 H-U46619 is capable of binding with TXA2 receptor (see the publication supra). An inhibitory activity of the test compound against this binding means an ability of binding with the TXA2 receptor. It is also known that a good relationship exists between this binding activity and the anti-platelet activity (TXA2 antagonizing test).
An inhibitory activity (binding activity) of the test compound was calculated by the following equation. [formula]
Amount of the total binding is an amount of ^3 H-U46619-bound radioactivity in the absence of a test compound.
The amount of non-specific binding is used to mean an amount of ^3 H-U46619-bound radioactivity in the presence of 10 μM U-46619.
The amount bound in the presence of a test compound is an amount of ^3 H-U46619-bound radioactivity in the presence of a test compound in various concentrations.

[3] = test compound 1 μM, 12 nM 3H-U46619, washed guinea pig platelets, 37° C., 20 minutes

SMILES	Acute Toxicity (MLD), minimum lethal dose (mice; ip) [mg/kg]	Acute Toxicity (MLD), minimum lethal dose (mice; po) [mg/kg]	minimal effective dose [1] [mg/kg]	minimal effective concentration [2] [µg/mL]	inhibition at 1 µM (TXA2 receptor; [3]) [%]	inhibitory activity (TXA2 receptor binding), in words (TXA2 receptor)	inhibition at 1 µM (TXA2 receptor) [%]
COc1ccccc1N1CCN(CCSC2c3ccccc3COc3ccc(C(=O)O)cc32)CC1 (stereo not drawn) [Compound 9b]	> 100	> 300	10	1	–	–	–
O=C(O)c1ccc2c(c1)C(SCCN1CCC(c3ccccc3)CC1)c1ccccc1CO2 (stereo not drawn) [Compound 37b, 11-[2-(4-Phenyl-1-piperidinyl)ethyl]thio-6,11-dihydrodibenz[b,e]oxepin-2-carboxylic acid]	> 100	> 300	1	10	–	–	–
O=C(O)c1ccc2c(c1)/C(=C/CN1CCN(S(=O)(=O)C=Cc3ccccc3)CC1)c1ccccc1CO2 [Compound E-78b, (E)-11-[2-[4-(Styrylsulfonyl)-1-piperazinyl]ethylidene]-6,11-dihydrodibenz[b,e]oxepin-2-carboxylic acid-0.1 iso-propanol.0.1 hydrate]	> 100	> 300	> 100	3	83	–	–
CN(C)CCC=C1c2ccccc2COc2ccc(CC(=O)O)cc21 [Compound (B), reference compound]	–	–	–	–	1	not observed	–
O=C(O)c1ccc2c(c1)/C(=C/CN1CCN(c3ccc(F)cc3)CC1)c1ccccc1CO2 [Compound E-73b, (E)-11-[2-[4-(4-Fluorophenyl)-1-piperazinyl]ethylidene]-6,11-dihydrodibenz[b,e]oxepin-2-carboxylic acid.isopropanol. monohydrate]	> 100	> 300	> 100	10	85	–	–
CN1CCC(=C2c3ccccc3CC(=O)c3sccc32)CC1 [Ketotifen, reference compound]	–	–	–	–	–	not observed	-3
O=C(O)c1ccc2c(c1)/C(=C/CN1CCN(S(=O)(=O)c3cccs3)CC1)c1ccccc1CO2 [Compound E-79b, (E)-11-[2-[4-(2-Thienylsulfonyl)-1-piperazinyl]ethylidene]-6,11-dihydrodibenz[b,e]oxepin-2-carboxylic acid.0.5 hydrate]	> 100	> 300	> 100	30	77	–	–
O=C(O)c1ccc2c(c1)C(SCCN1CCN(c3ccc(F)cc3)CC1)c1ccccc1CO2 (stereo not drawn) [Compound 8b]	> 100	> 300	10	1	–	–	–
O=C(O)c1ccc2c(c1)/C(=C/CN1CCN(CC=Cc3ccccc3)CC1)c1ccccc1CO2 [E-75b', (E)-11-[3-(4-Cinnamyl-1-piperazinyl)ethylidene]-6,11-dihydrodibenz[b,e]oxepin-2-carboxylic acid.difumarate-0.5 hydrate]	> 100	> 300	100	0.1	85	–	–
